# Values of other authors as cited in patent US11737458B2, “Fibrous substrate for capture of gram negative bacteria” (Kimberly-Clark Worldwide, Inc., priority 2015, dated 2023).
structure (smiles),measurement,value
C=CC(=O)O [acrylic acid],pKa value,about 4.3
